According to ChEMBL document CHEMBL1142045, “Carbonic anhydrase inhibitors. Interaction of isozymes I, II, IV, V, and IX with organic phosphates and phosphonates” (Bioorg Med Chem Lett, 2005):

Experiments:
Carbonic anhydrase 4 = Carbonic anhydrase 4 (Homo sapiens, UniProt P22748); assay: Binding affinity towards human membrane associated carbonic anhydrase IV
Carbonic anhydrase 9 = Carbonic anhydrase 9 (Homo sapiens, UniProt Q16790); assay: Binding affinity owards recombinant human transmembrane carbonic anhydrase IX
[1] = target: Carbonic anhydrase 1 (Homo sapiens) (UniProt P00915); assay: Activation constant towards human cytosolic carbonic anhydrase I; Activator
Chain of Carbonic anhydrase 1 (Homo sapiens) (P00915 2-261 limits assumed): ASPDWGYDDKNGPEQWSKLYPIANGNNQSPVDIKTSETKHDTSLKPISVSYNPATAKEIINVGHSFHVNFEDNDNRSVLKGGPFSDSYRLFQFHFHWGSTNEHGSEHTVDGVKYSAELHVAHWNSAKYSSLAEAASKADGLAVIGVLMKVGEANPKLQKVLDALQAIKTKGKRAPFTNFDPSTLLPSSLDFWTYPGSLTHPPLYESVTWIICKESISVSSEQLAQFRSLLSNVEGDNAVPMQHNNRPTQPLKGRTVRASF

[2] = target: Carbonic anhydrase 5A, mitochondrial (Homo sapiens, UniProt P35218); assay: Binding affinity towards recombinant human mitochondrial carbonic anhydrase V
Chain of Carbonic anhydrase 5A, mitochondrial (P35218 whole entry): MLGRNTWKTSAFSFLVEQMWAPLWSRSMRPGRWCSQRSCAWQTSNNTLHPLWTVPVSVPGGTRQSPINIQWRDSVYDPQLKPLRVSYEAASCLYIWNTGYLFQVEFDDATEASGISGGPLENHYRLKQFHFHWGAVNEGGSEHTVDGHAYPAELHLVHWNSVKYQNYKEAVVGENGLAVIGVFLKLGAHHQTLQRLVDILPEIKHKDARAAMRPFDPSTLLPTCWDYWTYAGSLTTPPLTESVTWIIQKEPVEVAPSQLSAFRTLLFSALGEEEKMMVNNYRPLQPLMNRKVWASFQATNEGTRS

Carbonic anhydrase 2 = Carbonic anhydrase 2 (Homo sapiens, UniProt P00918); assay: Binding affinity towards human cytosolic carbonic anhydrase II

Chain of Carbonic anhydrase 4 (P22748 whole entry): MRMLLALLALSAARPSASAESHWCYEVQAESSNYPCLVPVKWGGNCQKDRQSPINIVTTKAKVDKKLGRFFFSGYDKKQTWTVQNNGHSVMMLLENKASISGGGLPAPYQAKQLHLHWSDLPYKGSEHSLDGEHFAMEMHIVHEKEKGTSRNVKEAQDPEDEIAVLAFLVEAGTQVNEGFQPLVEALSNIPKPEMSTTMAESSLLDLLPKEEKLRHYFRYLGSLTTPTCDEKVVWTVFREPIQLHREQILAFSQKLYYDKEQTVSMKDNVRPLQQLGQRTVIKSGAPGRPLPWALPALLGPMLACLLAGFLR

Row | SMILES | Ki (Carbonic anhydrase 4) [µM] | Ki (Carbonic anhydrase 9) [µM] | KA [1] [mM] | Ki [2] [µM] | Ki (Carbonic anhydrase 2) [µM]
1 | CC(OP(=O)(O)O)C(N)C(=O)O (configuration not stated) | 3180 | 1230 | 0.5 | 850 | 1080
2 | N[C@@H](COP(=O)(O)O)C(=O)O [DEXFOSFOSERINE] | 4260 | 920 | 0.1 | 360 | 420
3 | O=C(O)P(=O)(O)O [FOSCARNET] |  |  | 0.012 | 41700 | 
4 | O=P(O)(O)CP(=O)(O)O [MEDRONIC ACID] | 5340 | 860 | 0.2 | 730 | 1250
5 | O=C(O)C[C@H](NC(=O)CP(=O)(O)O)C(=O)O [PALA] | 0.079 | 2250 | 0.1 | 370 | 7.8
6 | O=P(O)(O)c1ccccc1 [PHENYLPHOSPHONIC ACID] | 5.4 | 2210 | 0.0001 | 90 | 0.099
